Series [1] can be described thus: TC50 MTS assay with human cancer cell lines: MCF-7. The settings on record: MCF-7 cells, 96 h drug treatment. The format is cell-based. How it is done:
(§1) Plating Cells: The Huh7, HEPG2, HEK293, MCF-7, PK9, RPK9, or BxPC3 cells were passaged when they were about 70% confluent. The cells were counted using a hemocytometer, and then diluted cells to 0.5×10^5 cells per mL in DMEM+10% FBS. 100 µL of the cells (5,000 cells) were plated per well in a clear 96-well plate. The cells were allowed to attach for 24 hours at 37° C.
(§2) Treating the cells: Pre-warm the DMEM media without phenol red+2% FBS media to 37° C. […] This will bring the final DMSO concentration to 0.5%. Use these 0.5 mM dilutions to further serially the drugs in DMEM without phenol red+2% FBS+0.5% DMSO. This will keep the concentration of DMSO in each condition identical. Remove the 96-well plate from the 37° C. incubator. Replace the media on the plate with the dilutions of the drugs. Stagger these treatments by 1 h and write the treatment time on each set of plates. Return to 37° C. for 48 h or 96 h as indicated.
MTS Assay: The reagents from CellTiter 96 kit (Promega Corporation, Madison, Wis.) were thawed at room temperature in the dark for 1 h. The 96-well plate was removed from the 37° C. incubator at 48 h after drug treatment. 20 μL of the combined MTS/PMS reagent to each well of the plate, mixed, and the plate returned to 37° C. The absorbance of each well at 490 nm and 650 nm was determined using the Flexstation 3 microplate reader in endpoint mode every hour for 3 h. The solutions in the wells were mixed prior to each reading. Fit Data to the Emax model: y=(Emax*x)/(TC50+x), where Emax is the maximum inhibition and TC50 is the inhibitory dose 50%. Alternatively, fit the data to the Emax sigmoidal model: y=(Emax*x^slope)/(TC50^slope+x^slope), where slope is the Hill Slope.
Each TC50 was the average value of three measurements as described herein. […] The RPK9 cells are deficient in deoxycytidine kinase (“dCK”) activity, an enzyme required for the initial phosphorylation of dFdC to dFdCMP (see FIG. 2).

Series [2] concerns HCV luciferase replicon. In words: HCV luciferase replicon IC50 assay in Huh7 cells. The settings on record: for IC50: Hepatitis C virus; for Therapeutic Index (TC50/IC50): TC50 in Huh7 / IC50 HCV replicon, 48 h. How it is done: Plating Cells: The Luciferase replicon cell line was passaged when it was at about 70% confluency. The cells were counted by using a hemocytometer and diluted to 1×10^5 cells per mL in DMEM+10% FBS+[…] G415. The cells were plated as follows: 100 μL of the cells (10,000 cells) per well in a white-walled 96-well plate. The cells were allowed to attach for 24 hours at 37° C.
Treating the cells: Media (DMEM+2% FBS) was pre-warmed to 37° C. […] The 96-well plate was removed from the 37° C. incubator, and the media replaced on the plate with the serial dilutions of the test drug. The plate was then returned to 37° C. for 48 h.
Luciferase Assay: The Bright-Glo reagent (Promega Corporation, Madison, Wis.) was removed from the −80° C. freezer and allowed to thaw it at 4° C. in the dark. The amount of reagent necessary for the experiment (3.65 mL) was removed, and the remaining reagent was returned to −80° C. The Glo Lysis Buffer and the Bright Glow reagent were allowed to warm to room temperature for 30 min in the dark. The 96 well plate was removed from the incubator and the cells to allowed cool to room temperature for 30 min. The media was removed from the cells, and each well was gently washed in 100 μL of phosphate buffered saline (PBS). The PBS was removed and then 50 μL of the Glo Lysis Buffer was added to each well, followed by gently rocking the plate for 15 min at room temperature in the dark to ensure complete cell lysis. To each well of the 96-well plate was added 50 μL of the Bright Glo reagent and it was mixed well with the lysate. The plate was inserted into a GloMax 96 plate reader and allowed to sit for 5 min in the dark for the luciferase reaction to reach a steady state. The luminescence on the plate was read by using the pre-installed “Bright Glo” Promega program (Synergy Software) and the data were collected and saved. The data were fit to a 4 parameter logistic curve using Kaleidagraph using the following equation: 100/(1+(x/m3)^m4).
The data in Table 1 were determined for cells exposed to drug for 48 h. The IC50 is the concentration of each compound necessary to inhibit the replication of the HCV luciferase replicon to 50%.
That is, the cells were exposed to drug for 2 h at 37° C., followed by 46 h at 37° C. or incubated in the presence of drug for 48 h at 37° C.
Background: In antiviral work, replicon cells carry a viral genome segment that copies itself.

The nature of series [3]: TC50 MTS assay: PK9 cells. Type of series: cell-based. As to conditions: human, 48 h drug treatment. Here is the method:
as §1, §2
(§3) MTS Assay: The reagents from CellTiter 96 kit (Promega Corporation, Madison, Wis.) were thawed at room temperature in the dark for 1 h. The 96-well plate was removed from the 37° C. incubator at 48 h after drug treatment. […] The absorbance of each well at 490 nm and 650 nm was determined using the Flexstation 3 microplate reader in endpoint mode every hour for 3 h. The solutions in the wells were mixed prior to each reading. […]
(Tetrazolium dyes change colour on reduction, which living cells bring about.)

Series [4] in a line: TC50 MTS assay: RPK9 cells (deficient in deoxycytidine kinase). The format is cell-based. The settings on record: human, 48 h drug treatment, dCK-deficient cells. How it is done: as §1, §2, §3
For series [5], the system named is HCV luciferase replicon. Kind of series: Isobologram analysis of synergism with other anti-viral compounds. The format is cell-based, hepatitis C virus (HCV). How it is done:
Isobologram analysis was carried to assess the potential synergistic interaction of representative disclosed compounds with representative antiviral compounds. The isobolgram analysis was conducted as previously described by Chou and Talalay (see Chou T. C. and Talalay P. “Analysis of combined drug effects: a new look at a very old problem.” Trends Pharmacol Sci 1983; 4:450-4; and Chou T. C. and Talalay P. “Quantitative analysis of dose-effect relationships: the combined effects of multiple drugs or enzyme inhibitors.” Adv Enzyme Regul 1984; 22:27-55). The definitions of synergism are those described by Chou (see Chou, T. C. (2006) Theoretical basis, experimental design, and computerized simulation of synergism and antagonism in drug combination studies. Pharmacol Rev. 58(3):621-81).
Data for the isobologram analysis are shown in FIGS. 12-15, and shown in each figure are the test compound concentrations and corresponding combination index.

The mark [6] stands for this setting: Huh-7, 48 h, Huh7 cells containing HCV luciferase replicon, cells exposed to drug for 48 h.

Some results are limits rather than exact numbers.

What is called CC50 is the concentration at which the toxic effect on the cells reaches its halfway point. A low value points to harm at low concentration. What is called IC50 is the concentration that inhibits the measured activity by half. In the case of `O=C(Nc1ccn([C@@H]2O[C@H](CO)[C@@H](O)C2(F)F)c(=O)n1)c1cc(Cl)cc(Cl)c1` [GCB, N^4-(3,5-Dichlorobenzoyl)gemcitabine], the CC50 at 96 h in series [1] was 326 ± 88 nM. In series [2] (setting [6]), the IC50 came out at 25.5 ± 2.2 nM. For the same compound, the “Therapeutic Index (TC50/IC50)” value in series [2] was 4310.
For the compound `COc1cc(C(=O)Nc2ccn([C@@H]3O[C@H](CO)[C@@H](O)C3(F)F)c(=O)n2)cc(OC)c1OC` [GTB, N^4-(3,4,5-Trimethoxybenzoyl)gemcitabine], the CC50 at 96 h in series [1] was found to be 566 ± 118 nM. In addition, the half-maximal inhibitory concentration (IC50) turned out to be 49.3 ± 8.8 nM in series [2] (setting [6]); 49.3 ± 8.8 nM in series [2] (Huh-7, 48 h, cells incubated with drug continuously for 48 h (Table 5)); 2770 ± 265 nM in series [2] (Huh-7, cells incubated with drug for 2 h, followed by 46 h without drug). Besides, the “Therapeutic Index (TC50/IC50)” value in series [2] was 10040. Besides, the CC50 at 48 h in series [3] was 1.69 ± 0.1 µM; in series [4], > 500 µM. Also, the “Interaction Type with BMS-790052” value in series [5] (Compound 2 = BMS-790052) is recorded as “moderate synergism”. In addition, the “Interaction Type with PSI-7977” value in series [5] (Compound 2 = PSI-7977) is recorded as “moderate antagonism”.

(Values after patent US9744186B2 (priority 2012, dated 2017).)
